Two compounds from patent US8586082B2, “Solid orally administerable pharmaceutical dosage forms with rapid active principle release” (Bayer Intellectual Property GmbH, priority 2005, dated 2013) can be followed below.

Values after ≈ are worked out from the molar mass of the structure shown.

The nature of data set [1]: In vitro release, USP apparatus 2 (paddle), non-sink conditions (supersaturation). It counts as physicochemical. As to conditions: 75 rpm, 900 ml acetate buffer pH 4.5, 37° C., active ingredient dose 20 mg. As to the method:
The in vitro release investigations are carried out by USP release method with apparatus 2 (paddle) at a temperature of 37° C. The speed of rotation of the stirrer is 75 rpm (revolutions per minute) in 900 ml of an acetate buffer solution of pH 4.5, which is prepared from 29.9 g of sodium acetate trihydrate and 16.6 ml of glacial acetic acid in 10 l of water.
The investigations in this connection take place under sink or non-sink conditions.
Non-sink conditions: The investigations for examining the supersaturation (increase in solubility) take place without addition of a surfactant and with a dose of 20 mg of active ingredient (I) to be released.
To illustrate the supersaturation behaviour of exemplary formulations 1 to 6 (see below), as comparison the in vitro release (non-sink conditions) of the micronized crystalline active ingredient (I) in the thermodynamically stable crystal modification I and of a rapid-release tablet formulation produced by fluidized bed granulation and comprising micronized crystalline active ingredient (I) in crystal modification I were determined.

Data set [2] is described as follows: Bioavailability, comparative study in rats (3 mg/kg). It counts as in vivo. As to conditions: male Wistar rats, suspension, geometric means. Here is the method:
The bioavailability was investigated by administering 3 mg/kg active ingredient (I) in each case to male Wistar rats: • a) in the form of exemplary formulation 1 (suspended in water) • b) in the form of exemplary formulation 2 (suspended in water) • c) in the form of exemplary formulation 3 (suspended in water) • d) in the form of the micronized crystalline active ingredient in thermodynamically stable crystal modification I (suspended in 0.5% strength aqueous methylhydroxyethylcellulose (proprietary name: Tylose MH 300))

Data set [3] in a line: Bioavailability, comparative study in dogs (150 mg/kg). As to conditions: Beagle dogs, crossover, suspension, geometric means. Format: in vivo.
The nature of data set [4]: Solubility in water of active ingredient (I). It counts as physicochemical. To be noted: 25° C., crystal modification I.

`O=C(NC[C@H]1CN(c2ccc(N3CCOCC3=O)cc2)C(=O)O1)c1ccc(Cl)s1` [Comparative Formulation 1.1, 5-Chloro-N-({(5S)-2-oxo-3-[4-(3-oxo-4-morpholinyl)phenyl]-1,3-oxazolidin-5-yl}methyl)-2-thiophenecarboxamide]: the Release in data set [1] (15 min) is 23%; in data set [1] (30 min), 34%; in data set [1] (60 min) it was 41%; in data set [1] (90 min) it was 44%. Also, the “AUC (0-24)norm” value in data set [2] came to 0.254 kg·h/L; in data set [3], 0.081 kg·h/L. The “Cmax, norm” value in data set [2] was 0.074 kg/L; in data set [3] it was 0.015 kg/L. The Cmax came to 222 ng/mL in data set [2] (rat, in vivo, oral) and 2220 ng/mL in data set [3] (dog, in vivo, oral). The AUC(0-t) turned out to be 762 ng·h/mL in data set [2] (rat, in vivo, oral, read-out: AUC (0-24)) and 12200 ng·h/mL in data set [3] (dog, in vivo, oral, read-out: AUC (0-24)).
As for `O=C(NC[C@H]1CN(c2ccc(N3CCOCC3=O)cc2)C(=O)O1)c1ccc(Cl)s1` [active ingredient (I), 5-Chloro-N-({(5S)-2-oxo-3-[4-(3-oxo-4-morpholinyl)phenyl]-1,3-oxazolidin-5-yl}methyl)-2-thiophenecarboxamide], in data set [4], the solubility is approximately 7 µg/mL (≈ 16.1 µM).

By Cmax is commonly meant the peak of the concentration-time curve. As a reminder, the solubility is the concentration that dissolves in the medium under given conditions. Lower therefore signals little dissolved substance.
